Consider 17 molecules from patent publication US8530493B2, “Indolopyridines as Eg5 kinesin modulators” (4SC AG, priority 2006, dated 2013).

Molecules are shown by their SMILES. Bounds are passed on as bounds.

In experiment [1] the test system is RKO p27 or p21 induced (arrested) colon adenocarcinoma cells. As to the kind of experiment: Alamar Blue cell viability assay, RKO p27 or p21 induced (arrested). The experiment is classed as cell-based. To be noted: Homo sapiens, RKOp27, Table B2, cells arrested by Ponasterone A, 72 hours, read-out: −log EC50 RKO p27 or p21 induced (arrested) (converted). The procedure: (§1) To determine the cell cycle specific mode of action, subclones of RKO colon adenocarcinoma cells (RKOp21 or RKOp27 as described by Schmidt et al. in Oncogene 19, 2423-2429; 2000) are seeded into 96 well flat bottom plates at a density of 16000 cells per well in a volume of 50 μl per well in DMEM growth medium with 10% FCS containing 10 μM Ponasterone A. 24 hours after seeding the 50 μl each of the compound dilutions in DMEM medium are added into each well of the 96-well plate. Each compound dilution is tested as triplicates. Wells containing untreated control cells are filled with 50 μl DMEM medium containing 1% DMSO. The cells are then incubated with the substances for 72 hours at 37° C. in a humidified atmosphere containing 5% carbon dioxide. To determine the viability of the cells, 10 μl of an Alamar Blue solution (Biosource) are added and the fluorescence is measured at an extinction of 544 nm and an emission of 590 nm. For the calculation of the cell viability the emission value from untreated cells is set as 100% viability and the emission rates of treated cells are set in relation to the values of untreated cells. Viabilities are expressed as % values. The Graphpad Prism program (GraphPad Software, Inc) is used for the calculation of EC50 values out of the obtained dose-response curves. Viability is compared of proliferating cells grown in the absence of the inducer Ponasterone A, versus viability of cells arrested by the expression of ectopic p27Kip1 induced by Ponasterone A.
(§2) Representative values for anti-proliferation/cytotoxicity [measured as −log EC50 (mol/l)] determined in the aforementioned assays follow from the following tables B1, B2 and B3, in which the numbers of the compounds correspond to the numbers of the examples.
(Alamar Blue is a resazurin reagent that responds to reducing activity.)

Experiment [2] concerns RKO p27 or p21 uninduced (proliferating) colon adenocarcinoma cells. Briefly: Alamar Blue cell viability assay, RKO p27 or p21 uninduced (proliferating). The class given is cell-based. The note with it: Homo sapiens, RKOp27, 72 h, Table B2, anti-proliferative/cytotoxic activity, read-out: −log EC50 RKO p27 or p21 uninduced (proliferating) (converted). Here is the method: The anti-proliferative/cytotoxic activity of the compounds described herein can be tested on subclones of RKO human colon adenocarcinoma cells (Schmidt et al., Oncogene 19, 2423-2429; 2000) using the Alamar Blue cell viability assay (described in O'Brien et al. Eur J Biochem 267, 5421-5426, 2000). The compounds are dissolved as 10 mM solutions in DMSO and subsequently diluted in semi-logarithmic steps. DMSO dilutions are further diluted 1:100 into Dulbecco's modified Eagle's medium (DMEM) containing 10% fetal calf serum to a final concentration twice as much as the final concentration in the test. RKO subclones are seeded into 96 well flat bottom plates at a density of 4000 cells per well in a volume of 50 μl per well. 24 hours after seeding the 50 μl each of the compound dilutions in DMEM medium are added into each well of the 96 well plate. Each compound dilution is tested as triplicates. Wells containing untreated control cells are filled with 50 μl DMEM medium containing 1% DMSO. The cells are then incubated with the substances for 72 hours at 37° C. in a humidified atmosphere containing 5% carbon dioxide. To determine the viability of the cells, 10 μl of an Alamar Blue solution (Biosource) are added and the fluorescence is measured at an extinction of 544 nm and an emission of 590 nm. For the calculation of the cell viability the emission value from untreated cells is set as 100% viability and the emission rates of treated cells are set in relation to the values of untreated cells. Viabilities are expressed as % values. The Graphpad Prism program is used for the calculation of EC50 values for anti-proliferative/cytotoxic activity out of the obtained dose-response curves.
as §1, §2

In general, EC50 refers to the concentration needed to bring the measured effect to its halfway point. With `COc1ccc2[nH]c3c(c2c1)C[C@@]1(C)C(=O)N(CCCN2CCCCCC2)C(=O)N1[C@@H]3c1cccc(O)c1` (racemic) [Example 113], the EC50 was not below 316 nM in experiment [1] and not above 39.8 nM in experiment [2].

As for `COc1ccc2[nH]c3c(c2c1)C[C@@]1(C)C(=O)N(CCN(C)C(C)C)C(=O)N1[C@@H]3c1cccc(O)c1` (racemic) [Example 70, (3aSR,10RS)-10-(3-Hydroxy-phenyl)-2-[2-(isopropyl-methyl-amino)-ethyl]-6-methoxy-3a-methyl-3a,4,9,10-tetrahydro-2,9,10a-triaza-cyclopenta[b]fluorene-1,3-dione], the values for the EC50 in experiment [1] and in experiment [2] were not below 3160 nM and not above 39.8 nM, respectively.

For the molecule `CN(CCO)CCN1C(=O)N2[C@H](c3cccc(O)c3)c3[nH]c4ccc(Cl)cc4c3C[C@@]2(C)C1=O` (racemic) [Example 126, (3aSR,10RS)-6-Chloro-2-{2-[(2-hydroxy-ethyl)-methyl-amino]-ethyl}-10-(3-hydroxy-phenyl)-3a-methyl-3a,4,9,10-tetrahydro-2,9,10a-triaza-cyclopenta[b]fluorene-1,3-dione], the figures for the EC50 in experiment [1] and in experiment [2] were not below 316 nM and not above 39.8 nM, respectively.

Consider `COc1ccc2[nH]c3c(c2c1)C[C@@]1(C)C(=O)N(CCCNC2CC2)C(=O)N1[C@@H]3c1cccc(O)c1` (racemic) [Example 93, (3aSR,10RS)-2-(3-Cyclopropylamino-propyl)-10-(3-hydroxy-phenyl)-6-methoxy-3a-methyl-3a,4,9,10-tetrahydro-2,9,10a-triaza-cyclopenta[b]fluorene-1,3-dione], for which the EC50 in experiment [1] is not below 3160 nM; in experiment [2] it was not above 39.8 nM.

For the molecule `CCN(CC)CCCN1C(=O)N2[C@H](c3cccc(O)c3)c3[nH]c4ccc(OC)cc4c3C[C@@]2(C)C1=O` (racemic) [Example 107, (3aSR,10RS)-2-(3-Diethylamino-propyl)-10-(3-hydroxy-phenyl)-6-methoxy-3a-methyl-3a,4,9,10-tetrahydro-2,9,10a-triaza-cyclopenta[b]fluorene-1,3-dione], the EC50 in experiment [1] is not below 316 nM; in experiment [2], not above 39.8 nM.

With `CC1CCN(CCN2C(=O)N3[C@H](c4cccc(O)c4)c4[nH]c5ccc(Cl)cc5c4C[C@@]3(C)C2=O)CC1` (racemic) [Example 98, (3aSR,10RS)-6-Chloro-10-(3-hydroxy-phenyl)-3a-methyl-2-[2-(4-methyl-piperidin-1-yl)-ethyl]-3a,4,9,10-tetrahydro-2,9,10a-triaza-cyclopenta[b]fluorene-1,3-dione], the EC50 in experiment [1] was not below 3160 nM; in experiment [2] it was not above 39.8 nM.

As to `COc1ccc2[nH]c3c(c2c1)C[C@@]1(C)C(=O)N(CCN2CC=CCC2)C(=O)N1[C@@H]3c1cccc(O)c1` (racemic) [Example 68, (3aSR,10RS)-2-[2-(3,6-Dihydro-2H-pyridin-1-yl)-ethyl]-10-(3-hydroxy-phenyl)-6-methoxy-3a-methyl-3a,4,9,10-tetrahydro-2,9,10a-triaza-cyclopenta[b]fluorene-1,3-dione], the EC50 in experiment [1] is not below 3160 nM; in experiment [2] it was not above 39.8 nM.

As to `C=CCNCCCN1C(=O)N2[C@H](c3cccc(O)c3)c3[nH]c4ccc(OC)cc4c3C[C@@]2(C)C1=O` (racemic) [Example 146, (3aSR,10RS)-2-(3-Allylamino-propyl)-10-(3-hydroxy-phenyl)-6-methoxy-3a-methyl-3a,4,9,10-tetrahydro-2,9,10a-triaza-cyclopenta[b]fluorene-1,3-dione], the values for the EC50 in experiment [1] and in experiment [2] were not below 316 nM and not above 39.8 nM, respectively.

On to `CCN(CCOC)CCN1C(=O)N2[C@H](c3cccc(O)c3)c3[nH]c4ccc(Cl)cc4c3C[C@@]2(C)C1=O` (racemic) [Example 121, (3aSR,10RS)-6-Chloro-2-{2-[ethyl-(2-methoxy-ethyl)-amino]-ethyl}-10-(3-hydroxy-phenyl)-3a-methyl-3a,4,9,10-tetrahydro-2,9,10a-triaza-cyclopenta[b]fluorene-1,3-dione], for which the EC50 was not below 316 nM in experiment [1] and 39.8 to 251 nM in experiment [2].

In the case of `CC(C)(C)NCCN1C(=O)N2[C@H](c3cccc(O)c3)c3[nH]c4ccc(Cl)cc4c3C[C@@]2(C)C1=O` (racemic) [Example 97, (3aSR,10RS)-2-(2-tert-Butylamino-ethyl)-6-chloro-10-(3-hydroxy-phenyl)-3a-methyl-3a,4,9,10-tetrahydro-2,9,10a-triaza-cyclopenta[b]fluorene-1,3-dione], the values for the EC50 in experiment [1] and in experiment [2] were not below 3160 nM and not above 39.8 nM, respectively.

For the molecule `CC(C)N(C)CCCN1C(=O)N2[C@H](c3cccc(O)c3)c3[nH]c4ccc(Cl)cc4c3C[C@@]2(C)C1=O` (racemic) [Example 133, (3aSR,10RS)-6-Chloro-10-(3-hydroxy-phenyl)-2-[3-(isopropyl-methyl-amino)-propyl]-3a-methyl-3a,4,9,10-tetrahydro-2,9,10a-triaza-cyclopenta[b]fluorene-1,3-dione], the EC50 in experiment [1] is not below 316 nM; in experiment [2] it was not above 39.8 nM.

With `C[C@@]12Cc3c([nH]c4ccc(Cl)cc34)[C@@H](c3cccc(O)c3)N1C(=O)N(CCN1CCCCCC1)C2=O` (racemic) [Example 104, (3aSR,10RS)-2-(2-Azepan-1-yl-ethyl)-6-chloro-10-(3-hydroxy-phenyl)-3a-methyl-3a,4,9,10-tetrahydro-2,9,10a-triaza-cyclopenta[b]fluorene-1,3-dione], the EC50 was not below 3160 nM in experiment [1] and not above 39.8 nM in experiment [2].

In the case of `COc1ccc2[nH]c3c(c2c1)C[C@@]1(C)C(=O)N(CCCN(C)C(C)C)C(=O)N1[C@@H]3c1cccc(O)c1` (racemic) [Example 94, (3aSR,10RS)-10-(3-Hydroxy-phenyl)-2-[3-(isopropyl-methyl-amino)-propyl]-6-methoxy-3a-methyl-3a,4,9,10-tetrahydro-2,9,10a-triaza-cyclopenta[b]fluorene-1,3-dione], the EC50 in experiment [1] was not below 3160 nM; in experiment [2] it was not above 39.8 nM.

As for `C#CCNCCN1C(=O)N2[C@H](c3cccc(O)c3)c3[nH]c4ccc(Cl)cc4c3C[C@@]2(C)C1=O` (racemic) [Example 127, (3aSR,10RS)-6-Chloro-10-(3-hydroxy-phenyl)-3a-methyl-2-(2-prop-2-ynylamino-ethyl)-3a,4,9,10-tetrahydro-2,9,10a-triaza-cyclopenta[b]fluorene-1,3-dione], the results for the EC50 in experiment [1] and in experiment [2] were not below 316 nM and not above 39.8 nM, respectively.

Take `COc1ccc2[nH]c3c(c2c1)C[C@@]1(C)C(=O)N(CCN2CCC(C)CC2)C(=O)N1[C@@H]3c1cccc(O)c1` (racemic) [Example 75, (3aSR,10RS)-10-(3-Hydroxy-phenyl)-6-methoxy-3a-methyl-2-[2-(4-methyl-piperidin-1-yl)-ethyl]-3a,4,9,10-tetrahydro-2,9,10a-triaza-cyclopenta[b]fluorene-1,3-dione]: the figures for the EC50 in experiment [1] and in experiment [2] were not below 3160 nM and 39.8 to 251 nM, respectively.

On to `COc1ccc2[nH]c3c(c2c1)C[C@@]1(C)C(=O)N(CCCN2CCC(C)CC2)C(=O)N1[C@@H]3c1cccc(O)c1` (racemic) [Example 112, (3aSR,10RS)-10-(3-Hydroxy-phenyl)-6-methoxy-3a-methyl-2-[3-(4-methyl-piperidin-1-yl)-propyl]-3a,4,9,10-tetrahydro-2,9,10a-triaza-cyclopenta[b]fluorene-1,3-dione], for which the results for the EC50 in experiment [1] and in experiment [2] were not below 316 nM and not above 39.8 nM, respectively.

For `C[C@@]12Cc3c([nH]c4ccc(Cl)cc34)[C@@H](c3cccc(O)c3)N1C(=O)N(CCCCl)C2=O` (racemic) [Example 57, (3aSR,10RS)-6-Chloro-2-(3-chloro-propyl)-10-(3-hydroxy-phenyl)-3a-methyl-3a,4,9,10-tetrahydro-2,9,10a-triaza-cyclopenta[b]fluorene-1,3-dione], the EC50 in experiment [1] is not below 316 nM; in experiment [2] it was 39.8 to 251 nM.
